This note sets out measurements from US11395492B2, “Antimicrobial and agrochemical compositions” (Myco Sciences Limited, priority 2015, dated 2022).

Where two headings read alike, the source gives them in different places.

In one experiment the test system is spores of B. cinerea. Kind of experiment: Sporicidal assay (1) with sodium nitrite, B. cinerea.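 Further: score 0 no growth 1 reduced growth 2 control-level growth.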 The experiment is classed as cell-based, Botrytis cinerea. Particulars: test item 1%, 30 min.
The subject of experiment [1] is Rhizoctonia solani. The experiment is described as follows: Inhibition of fungal growth assay (radial growth on PDA). Particulars: for IC50 (% of stock solution) on growth of R. solani: potato dextrose agar, 24 hour culture at 22° C.
Method: Inhibition of fungal growth assay. The Rhizoctonia solani (R. solani) strain was isolated from sclerotia on the skin of a potato and was maintained in culture on potato dextrose agar (PDA) at room temperature (22° C.). To assess the effects of the compositions on fungal growth, 10 microliters of the test compositions diluted in sterile distilled water was placed in the wells of a 12-well tissue culture plate and 1 milliliter of PDA was added by pipette to each well. The plate was agitated to distribute the test composition evenly throughout the agar (distilled water alone was used as control) and then the agar was allowed to set. Plugs of agar containing fungal hyphae (3×3 millimeters) from an established fungal culture were cut out using a scalpel and inserted into holes cut into the centre of the agar in each well of the 12-well plate, which was then cultured at room temperature. To assess the effects of compositions on radial fungal growth, the diameter of the fungal hyphae was measured twice at a 90° angle using a ruler and the average diameter in millimeters was calculated. Concentrations of compositions required to inhibit the radial growth of R. solani by 50% (IC50) were determined graphically.
Experiment [2] relates to Rhizoctonia solani.
Method: To assess the effects of composition on fungal growth, 10 microliters of the test compositions diluted in sterile distilled water were placed in the wells of a 12-well tissue culture plate and 1 milliliter of PDA was added by pipette to each well. The plate was agitated to distribute the test composition evenly throughout the agar (distilled water alone was used as control) and then the agar was allowed to set. Plugs of agar containing fungal hyphae (3×3 millimeters) from an established fungal culture were cut out using a scalpel and inserted into holes cut into the centre of the agar in each well of the 12-well plate, which was then cultured at room temperature (22° C.). To assess the effects of compositions on radial fungal growth, the diameter the fungal hyphae was measured twice at a 90° angle using a ruler and the average diameter in millimeters was calculated. If no fungal growth could be detected by eye, the cultures were observed by phase microscopy (40×) to confirm that there was no growth (NG) as judged by visual examination.
To assess the effects of compounds and compositions on sclerotia formation, the R. solani cultures were examined daily and radial fungal growth was measured until the cultures were confluent after which time the development of white (immature) sclerotia and mature (black pigmented) sclerotia was noted and the number of mature sclerotia was counted on day 10 of culture.
The next experiment deals with spores of F. oxysporum. The experiment is described as follows: Sporicidal assay (1) with sodium nitrite, F. oxysporum. Further: key: 2* = Control growth; 1 = Reduced growth; 0 = No growth. Particulars: test item 1%, 30 min. Type of experiment: cell-based, Fusarium oxysporum f. sp. cubense.

Regarding `O=S(=O)([O-])[O-].[Zn+2]` [ZnSO4, zinc sulfate], the “Fungal growth score, spores of B. cinerea” value came out at 2 in the experiment on spores of B. cinerea (NaNO2 0 mM); 2 in the experiment with spores of B. cinerea (NaNO2 1 mM); 2 with spores of B. cinerea (NaNO2 3 mM); 2 in the experiment on spores of B. cinerea (NaNO2 10 mM); 2 in the experiment with spores of B. cinerea (NaNO2 30 mM); 1 with spores of B. cinerea (NaNO2 100 mM). The “IC50 (% of stock solution) on growth of R. solani” value in the experiment on Rhizoctonia solani [1] is reported as 0.33 % of stock solution.
Regarding `O=C(O)CNCP(=O)(O)O` [Glyphosate, 2-[(phosphonomethyl)amino] acetic acid], in the experiment on Rhizoctonia solani [2] (0.27 g/L (Table 11)), the “Day 1 growth in mm” value is reported as 20 mm, the “Day black SCL 1st seen” value was 5, the Day growth confluent turned out to be 2 and the “Day white SCL 1st seen” value turned out to be 3. In addition, in the experiment with Rhizoctonia solani [2] (0.27 g/L (Table 11)), the “No. black SCL on day 10” value was above 20. In the experiment with Rhizoctonia solani [2] (0.8 g/L (Table 11)), the “Day 1 growth in mm” value amounted to 14 mm, the “Day black SCL 1st seen” value is 6, the Day growth confluent is 2 and the “Day white SCL 1st seen” value was determined as 3. Besides, in the experiment with Rhizoctonia solani [2] (0.8 g/L (Table 11)), the “No. black SCL on day 10” value is listed as 8. Besides, in the experiment on Rhizoctonia solani [2] (2.7 g/L (Table 11)), the “Day 1 growth in mm” value is on record as 8 mm, the “Day black SCL 1st seen” value turned out to be 8, the Day growth confluent came to 6 and the “Day white SCL 1st seen” value was 6. Also, in the experiment with Rhizoctonia solani [2] (2.7 g/L (Table 11)), the “No. black SCL on day 10” value stood at 4. For the same compound, in the experiment on Rhizoctonia solani [2] (8 g/L (Table 11)), the “Day 1 growth in mm” value worked out at 6 mm and the “No. black SCL on day 10” value is 0.
With `O=[PH]([O-])O.[K+]` [Potassium phosphite, potassium phosphite], the “IC50 values with R. solani (fungal growth)” value in the experiment on Rhizoctonia solani [1] is around 400 µg/mL. In addition, in the experiment with Rhizoctonia solani [2] (10 mg/L (Table 9)), the “Day 1 growth in mm” value came out at 19 mm, the “Day black SCL 1st seen” value is given as 5, the Day growth confluent amounted to 2 and the “Day white SCL 1st seen” value came out at 3. For the same compound, the “No. black SCL on day 10” value in the experiment on Rhizoctonia solani [2] (10 mg/L (Table 9)) is 9. Besides, in the experiment on Rhizoctonia solani [2] (20 mg/L (Table 9)), the “Day 1 growth in mm” value is listed as 19 mm, the “Day black SCL 1st seen” value is 7, the Day growth confluent is reported as 2 and the “Day white SCL 1st seen” value turned out to be 4. Further, the “No. black SCL on day 10” value with Rhizoctonia solani [2] (20 mg/L (Table 9)) stood at 2. Moreover, in the experiment with Rhizoctonia solani [2] (40 mg/L (Table 9)), the “Day 1 growth in mm” value was 19 mm, the Day growth confluent is 2 and the “No. black SCL on day 10” value is recorded as 0. In the experiment on Rhizoctonia solani [2] (80 mg/L (Table 9)), the “Day 1 growth in mm” value was 18 mm, the Day growth confluent worked out at 2 and the “No. black SCL on day 10” value turned out to be 0. In addition, in the experiment on Rhizoctonia solani [2] (160 mg/L (Table 9)), the “Day 1 growth in mm” value is on record as 15 mm, the Day growth confluent was determined as 3 and the “No. black SCL on day 10” value is 0.
In the case of `NCP(=O)(O)O` [AMPA, aminomethyl phosphonic acid], in the experiment with Rhizoctonia solani [2] (0.1 g/L (Table 11)), the “Day 1 growth in mm” value stood at 20 mm, the “Day black SCL 1st seen” value is listed as 5, the Day growth confluent is given as 2 and the “Day white SCL 1st seen” value came out at 3. In the experiment on Rhizoctonia solani [2] (0.1 g/L (Table 11)), the “No. black SCL on day 10” value was above 20. For the same compound, in the experiment on Rhizoctonia solani [2] (0.3 g/L (Table 11)), the “Day 1 growth in mm” value is on record as 19 mm, the “Day black SCL 1st seen” value was 8, the Day growth confluent turned out to be 2 and the “Day white SCL 1st seen” value came to 3. In addition, the “No. black SCL on day 10” value in the experiment with Rhizoctonia solani [2] (0.3 g/L (Table 11)) is above 20. In the experiment with Rhizoctonia solani [2] (1 g/L (Table 11)), the “Day 1 growth in mm” value came to 17 mm, the “Day black SCL 1st seen” value was 9, the Day growth confluent is reported as 2 and the “Day white SCL 1st seen” value came out at 5. Further, the “No. black SCL on day 10” value in the experiment on Rhizoctonia solani [2] (1 g/L (Table 11)) worked out at 5.
Turning to `O.O.O.O.O.O=S(=O)([O-])[O-].[Cu+2]` [CuSO4, copper sulfate pentahydrate], the “Fungal growth score, spores of B. cinerea” value in the experiment with spores of B. cinerea (NaNO2 0 mM) was 2; with spores of B. cinerea (NaNO2 1 mM), 2; in the experiment with spores of B. cinerea (NaNO2 3 mM) it was 2; in the experiment on spores of B. cinerea (NaNO2 10 mM), 2; in the experiment with spores of B. cinerea (NaNO2 30 mM) it was 2; in the experiment on spores of B. cinerea (NaNO2 100 mM), 0. Besides, the “Fungal growth score, spores of F. oxysporum” value in the experiment on spores of F. oxysporum (NaNO2 0 mM), in the experiment on spores of F. oxysporum (NaNO2 1 mM), in the experiment on spores of F. oxysporum (NaNO2 3 mM), with spores of F. oxysporum (NaNO2 10 mM) and in the experiment on spores of F. oxysporum (NaNO2 30 mM) was 2 in each case. Also, the “IC50 (% of stock solution) on growth of R. solani” value in the experiment with Rhizoctonia solani [1] is 0.39 % of stock solution.
